# Marks after values point to notes of the source that are not given here.
# Test system: subcutaneous xenograft tumor of human colon cancer cell line HT-29
# Test: HT-29 subcutaneous xenograft, combined with irinotecan liposome injection
# Type: in vivo, NU/NU mice
# Details: compound 25 mg/kg intragastric + irinotecan liposome 10 mg/kg ip
# Experimental: 7 Efficacy Test of the Compounds of the Present Disclosure Combined with Irinotecan Liposome Injection on Inhibiting the Growth of Subcutaneous Xenograft Tumor of Human Colon Cancer Cell Line HT-29
# 7.1 Experimental Animals: NU/NU Mice, SPF, Female, 20 to 30 g.
# Irinotecan liposome injection (HE072), 43 mg: 10 mL, milky white liquid, batch No. B37191202, provided by Preparation Research Institute 2 from CSPC Zhongqi Pharmaceutical Technology (Shijiazhuang) Co., Ltd., diluted to an appropriate concentration with 5% glucose injection while testing.
# HT-29 cell, provided by Nanjing Kebai Biotechnology Co., Ltd.; 5A culture medium:fetal bovine serum=90%:10%, 37° C., 5% CO2.
# NU/NU nude mice were subcutaneously inoculated with HT-29 human colon cancer cells. When the mean tumor volume reached about 170 mm^3 (9 days after inoculation), the animals were evenly divided into groups according to the tumor volume (d0), with 6 mice in each group. 10 mg/kg of HE072 was administered intraperitoneally once a week for 1 time. Vehicle control, 25 mg/kg of A-6, 25 mg/kg of A-46, and 25 mg/kg of AZD1390 were administered intragastrically once a day, from Monday to Thursday every week except Friday to Sunday, for 1 week (4 times). The tumor volume was measured twice a week, the body weight of mouse was weighed every day, and the data were recorded. The tumor volume (TV) was calculated according to the formula: TV=½×a×b2, wherein a and b represent the long and short diameters of tumor, respectively. Tumor growth inhibitory rate TGI (%)=[1−(Ti−T0)/(Vi−V0)]×100, wherein Ti represents the mean tumor volume of a given treatment group on a certain day; TO represents the mean tumor volume of this treatment group at the beginning of administration; Vi represents the mean tumor volume of the vehicle control group on a certain day (the same day as that in Ti); V0 represents the mean tumor volume of the vehicle control group at the beginning of administration. At the end of the test (d17), the animals were sacrificed, the tumors were stripped and weighed, and the tumor weight inhibitory rates were calculated.
smiles,measurement,setting,value
"CC(C)n1c(=O)n(C)c2cnc3cc(F)c(-c4ccc(OCCCN5CCCCC5)nc4)cc3c21 [AZD1390, reference compound]",D 16 TGI,day 16,89.6%
same,D 16 TV (MEAN ± SD),day 16,244.2 ± 192.8***^### mm^3
same,Tumor weight,end of test,0.18 ± 0.18 g
same,Tumor weight inhibitory rate,end of test,74.7%
